In patent US6610501B2, “Porcine protein and uses thereof” (New York Blood Center, Inc., priority 1999, dated 2003):

Experiments:
Assay type in all cases: cell-based, porcine
pRBCs [1] = test: Effect of ssDNA and thyroglobulin on S1- or S2-induced hemagglutination of pRBCs; conditions: final concentration 1 mg/ml, 4° C. 3 hr
From the text: To determine whether the xenoreactive antibodies that we characterized in the binding of pRBCs are polyreactive, we tested the effect of ssDNA and thyroglobulin on binding of antibodies by hemagglutination assays and flow cytometry analyses (Turman M A, Casali P, Notkins A L, Bach F H, and Platt J L (1991) Transplantation 52:710-717). To ensure that the xenoreactive antibodies were not present in excess, we titrated the amount of antibodies used in the hemagglutination assays and chose the dilution that produced an intermediate strength (2+ or 3+) for inhibition. Fraction S1 or S2 was pre-incubated with ssDNA or thyroglobulin (final concentration 1 mg/ml) at 4° C. for 3 hr before adding pRBCs for the hemagglutination assay.

pRBCs [2] = test: Flow cytometry analysis of binding of human xenoreactive antibodies to pRBCs
Protocol: FIG. 7 represents the effect of the trisaccharide of FIG. 4 on the binding of fractions S1 and S2 to pRBCs. 40 μl of the trisaccharide (2 mg/ml) was added to 2 μl of S1 or S2 plus 38 μl of PBS (final concentration of trisaccharide 1 mg/ml), followed by incubation at 4° C. overnight. pRBCs were then added and flow cytometry analysis performed, using anti-human IgG (H+L) conjugated with phycoerythrin (PE) as the secondary antibody. Sample 1: negative control lacking the primary and secondary antibodies. Sample 2: negative control containing the secondary antibody only. Samples 3 and 4: fraction S1 without and with the trisaccharide of FIG. 4, respectively. Samples 5 and 6: fraction S2 without and with the trisaccharide of FIG. 4, respectively.
FIG. 8 represents the effect of concentration of the trisaccharide of FIG. 4 on the binding of S1 to pRBCs. Fraction S1 was incubated with various amounts of the trisaccharide under the same conditions described in […]. The binding of IgG (curve 1) and IgM (curve 2) molecules from fraction S1 was monitored by flow cytometry, using anti-human IgG and anti-human IgM, respectively. The data from the flow cytometry analyses were plotted as mean fluorescent intensity (MFI) versus the final concentration of trisaccharide, and the curves were generated by nonlinear curve fitting.
FIG. 9 represents the effect of the trisaccharide of FIG. 4 on the binding of anti-αGal and non-αGal antibodies to pRBCs. The control samples (1 and 2) were as described for FIG. 7. (A): anti-αGal antibody incubated in the absence (curve 3) or presence (curve 4) of the trisaccharide (1 mg/ml). (B): Non-αGal antibodies incubated in the absence (curve 3) or presence (curve 4) of the trisaccharide (1 mg/ml). […]
Various fractions derived from human serum were analyzed by flow cytometry. […]
To directly detect non-anti-αGal antibodies from the S2 fraction, we isolated these antibodies by using a pRBC absorption/elution method. The eluted fraction (non-αGal antibodies) was then measured for its binding to pRBCs in the presence or absence of the trisaccharide. […]

pRBCs [3] = conditions: 1 mg/ml trisaccharide, time course experiment at 37° C.; FIG. 5
From the text: FIG. 3 represents the procedure for measuring human complement-mediated hemolysis. The procedure is outlined in panel B. Hemolysis (A) is plotted as percent lysis versus volume of human serum added (μl). Lysis is defined as (OD-ODo)/(OD100−ODo), where OD represents the amount of lysis, as measured by the absorbance at 541 nm, ODo is the absorbance at 541 nm that is due to spontaneous lysis in the absence of any additions, and OD100 is the absorbance at 541 nm that is due to 100% lysis of red cells under the experimental conditions. […]
The hemolysis was monitored up to 4 hr. […]
In blood transfusions between humans, mismatched red cells undergo intravascular destruction by the same mechanism as complement-induced hemolysis observed in vitro. […] Since this serum was derived from type B individuals, as determined by hemagglutination assays, we used only non-type A pRBCs in the complement assays to exclude the binding of anti-A antibody present in the serum.
The human serum (between 3-18 μl) was mixed with 40 μl of 5% pRBCs (about 2×10^7 cells) in a total volume of 210 μl. […] Hemoglobin molecules released from the lysed cells into the supernatant were quantitated by measuring the absorbance at 541 nm. […]
We also measured the time course for complement-mediated hemolysis of pRBCs (FIG. 5). […]

Compound	inhibitory effect on S1- or S2-induced hemagglutination (pRBCs [1])	effect on binding of xenoreactive antibodies to pRBCs (pRBCs [2]; pre-incubation at 0.01, 0.1 or 1.0 mg/ml, FIG. 11)	inhibition of cell lysis (pRBCs [3])	inhibition of anti-αGal antibody in normal human serum (pRBCs [2]; trisaccharide 1 mg/ml, flow cytometry)	inhibition of IgG versus IgM binding of S1 to pRBCs (pRBCs [2]; various trisaccharide concentrations, FIG. 8)
thyroglobulin: thyroglobulin used to test polyreactivity of the antibodies	neither ssDNA nor thyroglobulin showed any inhibitory effect	little affected, if any	–	–	–
CC(=O)N[C@H]1C(O)O[C@H](CO)[C@@H](O[C@@H]2O[C@H](CO)[C@H](O)[C@H](O[C@H]3O[C@H](CO)[C@H](O)[C@H](O)[C@H]3O)[C@H]2O)[C@@H]1O (some centres unmarked) [trisaccharide, Galα1,3Galβ1,4GlcNAc]	–	–	approximately 50%	completely inhibited	inhibit IgG binding more efficiently than IgM binding
